Data as given in ChEMBL document CHEMBL3044635, “Effect of propiconazole and difenoconazole on the control of anthracnose of chilli fruits caused by Colletotrichum capsici” (Crop Prot, 2006).
Values after ≈ are worked out from the molar mass of the structure shown.

Key:
Colletotrichum truncatum [1] = test: Fungicidal activity against Colletotrichum capsici assessed as spore germination at 0.5 ug/ml after 48 to 96 hr (reference value: 70.2 CFU); format: functional
Colletotrichum truncatum [2] = test: Fungicidal activity against Colletotrichum capsici assessed as mycelial biomass at 1 ug/ml incubated 16 hr photoperiod for 20 days (reference value: 675 mg); format: functional
Colletotrichum truncatum [3] = test: Fungicidal activity against Colletotrichum capsici assessed as linear growth at 0.5 ug/ml incubated 16 hr photoperiod for 20 days (reference value: 90 mm); format: functional
Colletotrichum truncatum [4] = test: Fungicidal activity against Colletotrichum capsici infected chilli plant assessed as percent disease index at 0.05% applied as spray on day 10 post inoculation and twice every 20 days measured on day 155 post sowing in green house conditions (reference value: 62.5 to 68.6%); format: functional
Colletotrichum truncatum [5] = test: Fungicidal activity against Colletotrichum capsici assessed as sporulation at 1 ug/ml incubated 16 hr photoperiod for 20 days by haemocytometer (reference value: 0.081 x 10^6 ml'-1); format: functional
Colletotrichum truncatum [6] = test: Fungicidal activity against Colletotrichum capsici assessed as linear growth at 1 ug/ml incubated 16 hr photoperiod for 20 days (reference value: 90 mm); format: functional
Colletotrichum truncatum [7] = test: Fungicidal activity against Colletotrichum capsici infected chilli plant assessed as percent disease index at 0.05% applied as spray on day 10 post inoculation and twice every 20 days measured on day 155 post sowing in field conditions (reference value: 51 to 56.5%); format: functional
Colletotrichum truncatum [8] = test: Fungicidal activity against Colletotrichum capsici infected chilli plant assessed as fruit length measured per plot at 0.05% applied as spray on day 10 post inoculation and twice every 20 days measured on day 155 post sowing in field conditions (reference value: 8 to 8.7 cm); format: functional
Capsicum annuum = test: Phytotoxicity in Capsicum annuum (pepper) at 0.1% applied as spray; format: organism-based; conditions: in vivo, other
Colletotrichum truncatum [9] = test: Fungicidal activity against Colletotrichum capsici infected chilli plant assessed as fruit length measured per plot at 0.025% applied as spray on day 10 post inoculation and twice every 20 days measured on day 155 post sowing in field conditions (reference value: 8 to 8.7 cm); format: functional
Colletotrichum truncatum [10] = test: Fungicidal activity against Colletotrichum capsici assessed as inhibition of mycelial growth; format: functional; conditions: Colletotrichum truncatum; read-out: ED50 (the source's name)
Colletotrichum truncatum [11] = test: Fungicidal activity against Colletotrichum capsici assessed as mycelial biomass at 10 ug/ml incubated 16 hr photoperiod for 20 days (reference value: 675 mg); format: functional
Colletotrichum truncatum [12] = test: Fungicidal activity against Colletotrichum capsici assessed as reduction of pectin trans-eliminase production at 1 ug/ml incubated for 10 days measured up to 120 min by Ostwald-Fenske viscometric analysis (reference value: 38.5%); format: functional; parameters: scale not given: the % may be the effect or the level left
Colletotrichum truncatum [13] = test: Fungicidal activity against Colletotrichum capsici assessed as reduction of polygalacturonase production at 1 ug/ml incubated for 10 days measured up to 120 min by Ostwald-Fenske viscometric analysis (reference value: 45.3%); format: functional; parameters: scale not given: the % may be the effect or the level left
Colletotrichum truncatum [14] = test: Fungicidal activity against Colletotrichum capsici infected chilli plant assessed as fruit yield measured per plot at 0.05% applied as spray on day 10 post inoculation and twice every 20 days measured on day 155 post sowing in field conditions (reference value: 8.25 to 9.3 kg); format: functional
Colletotrichum truncatum [15] = test: Fungicidal activity against Colletotrichum capsici assessed as spore germination at 1 ug/ml after 48 to 96 hr (reference value: 70.2 CFU); format: functional
Colletotrichum truncatum [16] = test: Fungicidal activity against Colletotrichum capsici assessed as inhibition of spore germination at 0.1 ug/ml after 48 to 96 hr relative to control; format: functional
Colletotrichum truncatum [17] = test: Fungicidal activity against Colletotrichum capsici assessed as sporulation at 5 ug/ml incubated 16 hr photoperiod for 20 days by haemocytometer (reference value: 0.081 x 10^6 ml'-1); format: functional
Colletotrichum truncatum [18] = test: Fungicidal activity against Colletotrichum capsici infected chilli plant assessed as percent disease index at 0.025% applied as spray on day 10 post inoculation and twice every 20 days measured on day 155 post sowing in green house conditions (reference value: 62.5 to 68.6%); format: functional
Colletotrichum truncatum [19] = test: Fungicidal activity against Colletotrichum capsici assessed as spore germination at 25 ug/ml after 48 to 96 hr (reference value: 70.2 CFU); format: functional
Colletotrichum truncatum [20] = test: Fungicidal activity against Colletotrichum capsici assessed as linear growth at 0.1 ug/ml incubated 16 hr photoperiod for 20 days (reference value: 90 mm); format: functional
Colletotrichum truncatum [21] = test: Fungicidal activity against Colletotrichum capsici infected chilli plant assessed as fruit length at 0.05% applied as spray on day 10 post inoculation and twice every 20 days measured on day 155 post sowing in green house conditions (reference value: 6.8 to 7 cm); format: functional
Colletotrichum truncatum [22] = test: Fungicidal activity against Colletotrichum capsici assessed as mycelial biomass at 50 ug/ml incubated 16 hr photoperiod for 20 days (reference value: 675 mg); format: functional
Colletotrichum truncatum [23] = test: Fungicidal activity against Colletotrichum capsici infected chilli plant assessed as fruit mass measured per pot at 0.05% applied as spray on day 10 post inoculation and twice every 20 days measured on day 155 post sowing in green house conditions (reference value: 85.3 to 94.5 g); format: functional
Colletotrichum truncatum [24] = test: Fungicidal activity against Colletotrichum capsici assessed as mycelial biomass at 0.1 ug/ml incubated 16 hr photoperiod for 20 days (reference value: 675 mg); format: functional
Colletotrichum truncatum [25] = test: Fungicidal activity against Colletotrichum capsici assessed as sporulation at 10 ug/ml incubated 16 hr photoperiod for 20 days by haemocytometer (reference value: 0.081 x 10^6 ml'-1); format: functional
Colletotrichum truncatum [26] = test: Fungicidal activity against Colletotrichum capsici infected chilli plant assessed as fruit length at 0.025% applied as spray on day 10 post inoculation and twice every 20 days measured on day 155 post sowing in green house conditions (reference value: 6.8 to 7 cm); format: functional
Colletotrichum truncatum [27] = test: Fungicidal activity against Colletotrichum capsici assessed as mycelial biomass at 5 ug/ml incubated 16 hr photoperiod for 20 days (reference value: 675 mg); format: functional
Colletotrichum truncatum [28] = test: Fungicidal activity against Colletotrichum capsici assessed as sporulation at 50 ug/ml incubated 16 hr photoperiod for 20 days by haemocytometer (reference value: 0.081 x 10^6 ml'-1); format: functional
Colletotrichum truncatum [29] = test: Fungicidal activity against Colletotrichum capsici assessed as linear growth at 25 ug/ml incubated 16 hr photoperiod for 20 days (reference value: 90 mm); format: functional
Colletotrichum truncatum [30] = test: Fungicidal activity against Colletotrichum capsici infected chilli plant assessed as percent disease index at 0.025% applied as spray on day 10 post inoculation and twice every 20 days measured on day 155 post sowing in field conditions (reference value: 51 to 56.5%); format: functional
Colletotrichum truncatum [31] = test: Fungicidal activity against Colletotrichum capsici assessed as linear growth at 5 ug/ml incubated 16 hr photoperiod for 20 days (reference value: 90 mm); format: functional
Colletotrichum truncatum [32] = test: Fungicidal activity against Colletotrichum capsici assessed as linear growth at 10 ug/ml incubated 16 hr photoperiod for 20 days (reference value: 90 mm); format: functional
Colletotrichum truncatum [33] = test: Fungicidal activity against Colletotrichum capsici infected chilli plant assessed as fruit yield measured per plot at 0.025% applied as spray on day 10 post inoculation and twice every 20 days measured on day 155 post sowing in field conditions (reference value: 8.25 to 9.3 kg); format: functional

Structure (SMILES) | CFU (Colletotrichum truncatum [1]) | Activity (Colletotrichum truncatum [2]) [mg] | Activity (Colletotrichum truncatum [3]) [mm] | PDI (Colletotrichum truncatum [4]) [%] | Activity (Colletotrichum truncatum [5]) [×10⁶ /ml] | Activity (Colletotrichum truncatum [6]) [mm] | PDI (Colletotrichum truncatum [7]) [%] | Activity (Colletotrichum truncatum [8]) [cm] | Activity (Capsicum annuum) | Activity (Colletotrichum truncatum [9]) [cm] | EC50 (Colletotrichum truncatum [10]) [µg/mL] | Activity (Colletotrichum truncatum [11]) [mg] | Activity (Colletotrichum truncatum [12]) [%] | Activity (Colletotrichum truncatum [13]) [%] | Crop_yield (Colletotrichum truncatum [14]) [kg] | CFU (Colletotrichum truncatum [15]) | inhibition at 0.1 µg/mL (Colletotrichum truncatum [16]) [%] | Activity (Colletotrichum truncatum [17]) [×10⁶ /ml] | PDI (Colletotrichum truncatum [18]) [%] | CFU (Colletotrichum truncatum [19]) | further results
CCCC1COC(Cn2cncn2)(c2ccc(Cl)cc2Cl)O1 (stereo not drawn) [PROPICONAZOLE] | 15.5 | 129 | 39.2 | 25.7 | 0.33 | 20.5 | 20.5 | 9.2 | Non-toxic | 8.5 | 0.19 (≈ 0.555 µM) | 0 | 12 | 9.2 | 13.1 | 3.3 | 62 | 0 | 33 | 0 | Activity (Colletotrichum truncatum [20]): 55.3 mm; Activity (Colletotrichum truncatum [21]): 7.8 cm; Activity (Colletotrichum truncatum [22]): 0 mg; Crop_yield (Colletotrichum truncatum [23]): 130 g; Activity (Colletotrichum truncatum [24]): 410 mg; Activity (Colletotrichum truncatum [25]): 0 ×10⁶ /ml; Activity (Colletotrichum truncatum [26]): 7.1 cm; Activity (Colletotrichum truncatum [27]): 53 mg; Activity (Colletotrichum truncatum [28]): 0 ×10⁶ /ml; Activity (Colletotrichum truncatum [29]): 9 mm; PDI (Colletotrichum truncatum [30]): 30.6%; Activity (Colletotrichum truncatum [31]): 12.61 mm; Activity (Colletotrichum truncatum [32]): 9 mm; Crop_yield (Colletotrichum truncatum [33]): 9.86 kg
CC1COC(Cn2cncn2)(c2ccc(Oc3ccc(Cl)cc3)cc2Cl)O1 (stereo not drawn) [DIFENOCONAZOLE] | 22.4 | 243 | 48.5 | 22.2 | 1.02 | 39.3 | 22 | 9.2 | Toxic | 8.2 | 0.15 (≈ 0.369 µM) | 47 | 15.6 | 12 | 12.34 | 7.8 | 40 | 0.37 | 34.5 | 0 | Activity (Colletotrichum truncatum [20]): 73.5 mm; Activity (Colletotrichum truncatum [21]): 7.5 cm; Activity (Colletotrichum truncatum [22]): 0 mg; Crop_yield (Colletotrichum truncatum [23]): 140.5 g; Activity (Colletotrichum truncatum [24]): 465 mg; Activity (Colletotrichum truncatum [25]): 0 ×10⁶ /ml; Activity (Colletotrichum truncatum [26]): 7 cm; Activity (Colletotrichum truncatum [27]): 118 mg; Activity (Colletotrichum truncatum [28]): 0 ×10⁶ /ml; Activity (Colletotrichum truncatum [29]): 9 mm; PDI (Colletotrichum truncatum [30]): 33%; Activity (Colletotrichum truncatum [31]): 27.4 mm; Activity (Colletotrichum truncatum [32]): 18.5 mm; Crop_yield (Colletotrichum truncatum [33]): 9.1 kg
